Measurements from patent publication US4996201A, “4-(N-substituted amino)-2-butynyl-1-carbamates and thiocarbamates and derivatives thereof as centrally acting muscarinic agents” (Warner-Lambert Co., priority 1989, dated 1991).
Counter-ions that a name gives are not always drawn.

Key:
[1] = in vivo; cited from earlier work
[2] = system: human SK-N-SH cells bearing muscarinic binding sites; assay: Muscarinic Induced Inositol Phosphate Accumulation Assay (MIPA); type: cell-based; settings: inositol phosphate production, concentration for response 50% of the maximum, read-out: Agonist Response ED50
Procedure: In the Muscarinic Induced Inositol Phosphate Accumulation Assay (MIPA) human SK-N-SH cells bearing muscarinic binding sites are incubated with the test compound. The production of inositol phosphates is then measured. Stimulation of inositol phosphate turnover reflects the degree of muscarinic agonist activity of the test compound. The concentration of test compound required to produce a response 50% of the maximum is then determined.

[3] = system: central muscarinic antagonist site; type: binding; settings: rat cerebral cortex tissue; radiolabeled quinuclidinyl benzilate; (1 μM); read-out: RQNB IC50
[4] = molecular target: central muscarinic agonist site; assay: Receptor [3H]Cis-methyldioxalane Assay (RCMD), central muscarinic agonist site binding; settings: rat cerebral cortex tissue; radiolabeled cis-methyldioxalane; head also prints (0.1 μM)
laboratory rats = assay: Scopolamine Induced Swimming Assay (SIS); type: in vivo, rat; settings: for reversal of scopolamine-induced swimming hyperactivity: rats given scopolamine, result in words
Procedure: In the Scopolamine Induced Swimming Assay (SIS) the ability of a test compound to reverse the hyperactive swimming behavior of laboratory rats given scopolamine is determined. In the assay, untreated rats generally swim between 20 to 30 meters during a five-minute test period. […] The effect of scopolamine is centrally mediated. Thus, the ability of the test compound to reverse the hyperactive swimming behavior induced by scopolamine is a measure of the central cholinergic activity of the compound.

[5] = system: aged humans and nonhuman primates; settings: acetylcholinesterase inhibitor; cited from earlier work
mice = settings: cited from earlier work
[6] = in vivo; cited from earlier work; remark: listed apart in the source

SMILES: Nc1ccncc1N [3,4-diaminopyridine]
- age-related cognitive deficits [1]: ameliorate age-related cognitive deficits

SMILES: COC(=O)N(C)CC#CCN1CCCC1 [Example 1, Methyl[methyl4-(1-pyrrolidinyl]-2-butynyl]]-carbamate, ethanedioate (1:1) (salt)]
- EC50 [2]: 10000 nM
- IC50 [3]: 2660 nM
- IC50 [4]: 14.3 nM
- minimal effective dose (laboratory rats; Rattus norvegicus, Minimal Effective Dose to reverse scopolamine (0.1 mg/kg) induced hyperactive swimming in rats, read-out: Reversal of SIS Hyperactivity MED): 10 mg/kg

SMILES: COC(=O)N(C)CC#CCN1CCCCC1 [Example 1f, Methyl methyl[4-(1-piperidinyl]-2-butynyl-carbamate, ethanedioate (1:1) (salt)]
- IC50 [3]: 4990 nM
- IC50 [4]: 1570 nM

SMILES: COC(=O)N(C)CC#CCN1CCCCCC1 [Example 1g, Methyl[4-(hexahydro-1H-azepin-1-yl]-2-butynyl]methylcarbamate, ethanedioate (1:1) (salt)]
- IC50 [3]: 1950 nM
- IC50 [4]: 958 nM

SMILES: COC(=O)N(C)CC#CCN(C)C [Example 2, Methyl[4-(dimethylamino)-2-butynyl]methyl-carbamate, ethanedioate (1:1)(salt)]
- EC50 [2]: 59200 nM
- IC50 [3]: 46600 nM
- IC50 [4]: 63 nM

SMILES: COC(=O)C1=CCCN(C)C1 [arecoline]
- reversal of scopolamine-induced swimming hyperactivity (laboratory rats): can be reversed

SMILES: CNC(=O)Oc1ccc2c(c1)[C@]1(C)CCN(C)[C@@H]1N2C [physostigmine]
- reversal of scopolamine-induced swimming hyperactivity (laboratory rats): can be reversed
- memory [5]: improved memory

SMILES: CN1[C@@H]2C[C@@H](OC(=O)[C@H](CO)c3ccccc3)C[C@H]1[C@@H]1O[C@@H]12 [scopolamine]
- swimming distance increase above baseline values (laboratory rats; scopolamine 0.1 mg/kg, five-minute test period, rats): 75-125%

SMILES: C(#CCN1CCCC1)CN1CCCC1 [tremorine, 1,4-dipyrrolidino-2-butyne]
- duration of profound tremor of the head and limbs (mice): more than one
- conversion to active metabolite oxotremorine [6]: converted to an active metabolite, oxotremorine
